Where “and” joins values, the source holds several entries; their conditions need not be identical. Identical values can stand only once. Like-named read-outs stand apart in the source and are kept apart here.
What was measured:
[1] = system: pediatric patients having nmDMD; experiment: Timed function tests (TFTs), NCT02819557; format: in vivo, human; details: for decrease in mean time taken to descend 4 stairs (SD): 40 mg/kg/day
Method: For timed function tests (TFTs), results summarizing the baseline values (Study Day 1), post-baseline values, and the change from baseline values were analyzed separately for each of the 4 tests, including time taken to i). walk/run 10 meters, ii). Climb 4 stairs, iii). Descend 4 stairs, and iv). Stand from a supine position. The 10 m walk/run test was assessed once. If the time taken to perform a TFT exceeded 30 seconds or if a subject could not perform a TFT due to disease progression, a value of 30 seconds was set for the summary analysis. The time values in seconds were summarized using descriptive statistics: n, mean, SD, median, range, and 95% confidence intervals. Observed values, and changes from baseline in TFTs were summarized accordingly for the evaluable population.

[2] = Effective plasma concentration range for maximum benefit by 6 minute walking distance (6 MWD); parameters: species or system human; details: in vivo
Method: As used herein, the term “therapeutically effective amount” refers to that amount of ataluren administered to a patient based on patient weight that is sufficient to attain an average plasma concentration in a range of at least about 1 μg/mL to about 20 μg/mL during a 24 hour time period.

[3] = system: boys with nmDMD; details: boys about seven to about 16 years of age with nmDMD, Phase 3 NCT01826487; cited from earlier work
[4] = Ataluren plasma pharmacokinetics, NCT02819557 phase 2 open-label trial (LC-MS/MS); format: in vivo, human; details: for Cmax (0-6 hr) / concentration at 6 h / AUC(0-t) / Tmax: oral 10, 10, 20 mg/kg TID; for concentration at 6 h / AUC(0-t) / Tmax: male, human, plasma; for concentration at 6 h: oral, read-out: Ctrough-6 hr; for AUC(0-t) / Tmax: po, 20 mg/kg; for Tmax: read-out: tmax (0-6 hr)
Method: A total dose of 40 mg/kg/day study drug was administered as three divided doses per day. The first dose administered was: 10 mg/kg in the morning, the second dose administered was 10 mg/kg at midday, and the third dose administered was 20 mg/kg in the evening.
Evaluations included blood sampling for gene sequencing, blood sampling for ataluren PK, vital signs, height, weight, physical exam, hematology urinalysis, 12-lead ECG, palatability questionnaire, adverse events (AEs), concomitant medications and non-DMD-related Aes. For single-dose and steady-state plasma concentrations, blood samples were collected pre-dose and at 1, 2, 4, 6, 8, and 10 hours post-dose on Days 1 (Visit 2) and 28 (Visit 3). Ataluren plasma concentrations were determined using a validated liquid chromatography with tandem mass spectrometry (LC-MS/MS) method, with a lower limit of quantification (LOQ) of 0.500 μg/mL. Efficacy evaluations included TFTs and the NSAA, adapted as described below.
Observed values of plasma concentrations for ataluren were summarized at each visit and time point by dose level. Descriptive statistics (n, mean, standard deviation [SD], coefficient of variation [CV %], median, minimum, and maximum) and geometric means and their CV % were calculated. PK parameters (AUC0-6, AUC0-10, Cmax (0-6 hr) Ctrough (0-6 hr), t max (0-6 hr), accumulation ratio (AR) (AUC), AR (Cmax)) were derived using actual sampling and dosing times. Concentrations below the LOQ were set to zero for the calculation of non-compartmental analysis (NCA) parameters.

[5] = system: pediatric patients having nmDMD; experiment: North Star Ambulatory Assessment (NSAA), 16-, 8- and 3-item, NCT02819557; format: in vivo, human
Description: Certain assessments on the NSAA 16-point scale were revised to reflect developmental stages for a pediatric patient population, e.g., “Lifts Head” was removed from the total, Items 3 and 8 on the NSAA scales were further revised to detect changes in the pediatric younger age group.^18,22 The same analysis was used for all subjects (n=14).
However, all patients were included in the baseline and week 52 assessments.

[6] = Day 1 and Day 28, most subjects
[7] = Week 0 - Day 1, arithmetic mean, n=14
[8] = Week 4 - Day 28, arithmetic mean, n=14
[9] = Week 4 - Day 28 vs Day 1, arithmetic mean, n=14

O=C(O)c1cccc(-c2noc(-c3ccccc3F)n2)c1 [ataluren, 3-[5-(2-fluoro-phenyl)-[1,2,4]oxadiazol-3-yl]-benzoic acid]
Timed Function Test assessments, change from baseline ([1]; all four TFTs over the 52-week study period): overall improvements from baseline | mean reduction from baseline, 10 m walk/run time ([1]; week 28, 13 patients): 0.8 (±1.54) seconds | mean percent improvement (SD), time to climb 4 stairs ([1]; week 28 vs baseline): 9.10 (±29.63) percent and 9.10 (29.630) percent | mean percent improvement (SD), time to descend 4 stairs ([1]; week 28 vs baseline): 7.17 (±26.43) percent and 7.17 (26.433) percent | mean percent improvement, 10 m walk/run ([1]; week 28 vs baseline): 8.35% and 8.35 (22.778) % | reduction in mean time to climb 4 stairs ([1]; week 28 vs baseline, N=13): 1.8 (±4.85) seconds | decrease in mean time taken to descend 4 stairs (SD) ([1]; week 28 vs mean baseline of 7.1 seconds, 12 patients): 0.6 (±1.93) seconds | mean reduction from baseline, 10 m walk/run time ([1]; week 52, 14 patients): 1.1 (±1.35) seconds | mean percent improvement (SD), time to climb 4 stairs ([1]; week 52 vs baseline): 23.36 (±26.25) percent and 23.36 (26.249) percent | mean percent improvement (SD), time to descend 4 stairs ([1]; week 52 vs baseline): 24.22 (±28.32) percent and 24.22 (28.322) percent | mean percent improvement, 10 m walk/run ([1]; week 52 vs baseline): 14.54% and 14.54 (14.862) % | reduction in mean time to climb 4 stairs ([1]; week 52 vs baseline, N=14): 2.6 (±5.0) seconds | decrease in mean time taken to descend 4 stairs (SD) ([1]; week 52 vs mean baseline of 7.5 seconds, 13 patients): 2.2 (±2.58) seconds | mean improvement from baseline in stand from supine position assessment, week 28 compared with week 52 ([1]; weeks 28 (N=13) and 52 (N=14)): similar | time post morning dose at which the effective plasma concentration range is typically found [2]: ≤ 2 h | tolerability [3]: generally well tolerated | time of peak concentration post-morning dose (first peak) [4, 6]: approximately 2 hours | time of peak concentration post-morning dose (second peak, 2 hours post midday dose) [4, 6]: ~8 h | drug accumulation across doses ([4]; Day 28 vs Day 1): no apparent accumulation | Cmax (0-6 hr) [4, 7]: 15950 ng/mL | Cmax (0-6 hr) [4, 8]: 12540 ng/mL | AR AUC0-6 (accumulation ratio) [4, 9]: 0.99 | AR Cmax (accumulation ratio) [4, 9]: 1.02 | concentration at 6 h [4, 7]: 9120 ng/mL | concentration at 6 h [4, 8]: 5430 ng/mL | AUC(0-t) ([4]; Week 0 - Day 1, arithmetic mean, n=14, boys ≥2 to <5 years with nmDMD, read-out: AUC0-6): 53000 ng·h/mL | AUC(0-t) ([4]; Week 0 - Day 1, arithmetic mean, n=14, read-out: AUC0-10): 102000 ng·h/mL | Tmax [4, 7]: 3.84 h | AUC(0-t) ([4]; Week 4 - Day 28, arithmetic mean, n=14, read-out: AUC0-6): 43600 ng·h/mL | AUC(0-t) ([4]; Week 4 - Day 28, arithmetic mean, n=14, read-out: AUC0-10): 82100 ng·h/mL | Tmax [4, 8]: 2.72 h | plasma levels and safety in the younger population relative to older children ([4]; ≥2 to <5 yrs vs ≥5 yrs nmDMD populations): similar | 3-item NSAA score, mean (SD) ([5]; Week 28, N=13): 5.8 (±0.38) | 8-item NSAA score, mean (SD) ([5]; Week 28, N=13): 12.1 (+3.12) | 16-item NSAA total score, mean (SD) ([5]; Week 28, N=13): 19.8 (±6.17) and 19.8 (6.17) | 16-item NSAA total score, percent improvement over baseline ([5]; Week 28, N=13): 24.88% and 24.88 (27.203) % | 3-item NSAA score, percent improvement over baseline ([5]; Week 28 vs baseline 5.4): 10.26% | 8-item NSAA score, percent improvement over baseline ([5]; Week 28 vs baseline 10.5): 15.14% | 16-item NSAA total score, improvement over baseline ([5]; Week 28 vs baseline 16.2, N=13): 3.5 (±3.43) points | 3-item NSAA score, mean (SD) ([5]; Week 52, N=14): 5.6 (+0.63) | 8-item NSAA score, mean (SD) ([5]; Week 52, N=14): 12.8 (+3.12) | 16-item NSAA total score, mean (SD) ([5]; Week 52, N=14): 21.5 (±6.48) and 21.5 (6.48) | 16-item NSAA total score, percent improvement over baseline ([5]; Week 52, N=14): 36.63% and 36.63 (29.956) % | 3-item NSAA score, percent improvement over baseline ([5]; Week 52 vs baseline 5.4): 6.31% | 8-item NSAA score, percent improvement over baseline ([5]; Week 52 vs baseline 10.5): 23.31% | 16-item NSAA total score, improvement over baseline ([5]; Week 52 vs baseline 16.0, N=14): 5.5 (±4.43) points
